Values joined by “and” are separate entries in the source; they are usually repeats but may differ in a detail not shown here. Equal values may be shown once.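 Each compound was tested at five concentrations against cells in 96-well plates for 48 hours. GI50 = concentration required for 50% inhibition of growth. TGI: concentration producing complete growth inhibition.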
Legend:
Experiment in all cases: NCI tumour cell line growth inhibition, 48 h
[1] = test system: SW-620 colon
[2] = test system: EKVX NSCLC
[3] = test system: SK-MEL-28 melanoma
[4] = test system: HOP-92 NSCLC
[5] = test system: UO-31 renal
[6] = test system: LXFL 529 NSCLC
[7] = test system: IGROV1 ovarian
[8] = test system: SK-OV-3 ovarian
[9] = test system: K-562 leukemia
[10] = test system: CCRF-CEM leukemia
[11] = test system: OVCAR-4 ovarian
[12] = test system: A549 NSCLC
[13] = test system: SF-295 CNS
[14] = test system: SF-539 CNS
[15] = test system: SK-MEL-2 melanoma
[16] = test system: MALME-3M melanoma
[17] = test system: SNB-75 CNS
[18] = test system: HCC-2998 colon
[19] = test system: SNB-19 CNS
[20] = test system: NCI-H23 lung
[21] = test system: XF 498 CNS
[22] = test system: SK-MEL-5 melanoma
[23] = test system: A498 renal
[24] = test system: MOLT-4 leukemia
[25] = test system: OVCAR-8 ovarian
[26] = test system: M19-MEL melanoma
[27] = test system: LOX IMVI melanoma
[28] = test system: COLO 205 colon
[29] = test system: NCI-H226 lung
[30] = test system: KM12 colon
[31] = test system: RPMI-8226 leukemia
[32] = test system: U251 CNS
[33] = test system: SF-268 CNS
[34] = test system: NCI-H522 lung
[35] = test system: SN12C renal
[36] = test system: UACC-257 melanoma
[37] = test system: RXF 393 renal
[38] = test system: SNB-78 CNS
[39] = test system: TK-10 renal
[40] = test system: RXF-631 renal
[41] = test system: M14 melanoma
[42] = test system: KM20L2 colon
[43] = test system: HOP-62 NSCLC
[44] = test system: OVCAR-3 ovarian
[45] = test system: CAKI-1 renal
[46] = test system: OVCAR-5 ovarian
[47] = test system: DMS 114 small cell lung
[48] = test system: HL-60(TB) leukemia
[49] = test system: 786-0 renal
[50] = test system: HT29 colon
[51] = test system: ACHN renal
[52] = test system: NCI-H460 lung
[53] = test system: DLD-1 colon
[54] = test system: DMS 273 small cell lung
[55] = test system: UACC-62 melanoma
[56] = test system: MDA-N
[57] = test system: T-47D breast
[58] = test system: DU-145 prostate
[59] = test system: SR leukemia
[60] = test system: MDA-MB-231 breast
[61] = test system: BT-549 breast
[62] = test system: HS 578T breast
[63] = test system: HOP-18 NSCLC
[64] = test system: MDA-MB-435

SMILES: CCOc1ccc(NC(=O)C2=C(C)NC(C)=C(C(=O)Nc3ccc(OCC)cc3)C2c2ccccc2)cc1
- TGI [1]: > 100 µM
- TGI [2]: > 100000 nM
- TGI [3]: > 100000 nM
- TGI [4]: > 100 µM
- TGI [5]: > 100000 nM
- TGI [6]: > 100000 nM
- TGI [7]: > 100 µM
- TGI [8]: > 100 µM
- TGI [9]: > 100000 nM
- TGI [10]: > 100000 nM
- TGI [11]: > 100 µM
- TGI [12]: > 100000 nM
- TGI [13]: > 100000 nM
- TGI [14]: > 100 µM
- TGI [15]: > 100 µM
- TGI [16]: > 100 µM
- TGI [17]: > 100 µM
- TGI [18]: > 100000 nM
- TGI [19]: > 100000 nM
- TGI [20]: > 100 µM
- TGI [21]: > 100000 nM
- TGI [22]: > 100000 nM
- TGI [23]: > 100000 nM
- TGI [24]: > 100 µM
- TGI [25]: > 100 µM
- TGI [26]: > 100 µM
- TGI [27]: > 100000 nM
- TGI [28]: > 100 µM
- TGI [29]: > 100000 nM
- TGI [30]: > 100000 nM
- TGI [31]: > 100000 nM
- TGI [32]: > 100 µM
- TGI [33]: > 100 µM
- TGI [34]: > 100 µM
- TGI [35]: > 100 µM
- TGI [36]: > 100000 nM
- TGI [37]: > 100000 nM
- TGI [38]: > 100 µM
- TGI [39]: > 100000 nM
- TGI [40]: > 100000 nM
- TGI [41]: > 100000 nM
- TGI [42]: > 100 µM
- TGI [43]: > 100 µM
- TGI [44]: > 100 µM
- TGI [45]: > 100 µM
- TGI [46]: > 100000 nM
- TGI [47]: > 100 µM
- TGI [48]: 96.9 µM
- TGI [49]: > 100 µM
- TGI [50]: > 100000 nM
- TGI [51]: > 100000 nM
- TGI [52]: > 100 µM
- TGI [53]: > 100 µM
- TGI [54]: > 100000 nM

SMILES: Cc1cc2c(c3oc(C4(C)OC4C4OC4C)cc(=O)c13)C(=O)c1c(O)c(C3CC(C)(N(C)C)C(O)C(C)O3)cc(C3CC(N(C)C)C(O)C(C)O3)c1C2=O (stereo not given)
- GI50 [1]: 0.0489 nM and 0.111 nM
- TGI [2]: 0.78 nM and 0.929 nM
- TGI [55]: 0.16 nM and 0.228 nM
- TGI [3]: 2.77 nM and 0.596 nM
- GI50 [4]: 0.258 nM
- GI50 [5]: 6.38 nM
- TGI [5]: 14.3 nM and 2.25 nM
- TGI [6]: 11.7 nM
- GI50 [8]: 2.38 nM
- GI50 [9]: 0.0838 nM and 0.124 nM
- TGI [9]: 14.7 nM and 19.2 nM and 34.8 nM
- GI50 [10]: 0.13 nM
- TGI [10]: 49.9 nM and 41 nM
- TGI [12]: 3.51 nM and 14.2 nM and 17.7 nM
- TGI [13]: 0.154 nM and 1.2 nM
- GI50 [14]: 0.117 nM
- TGI [56]: 0.228 nM
- GI50 [57]: 0.251 nM
- TGI [18]: 0.891 nM
- TGI [19]: 71.3 nM and 8.63 nM and 15.8 nM
- TGI [58]: 0.138 nM and 0.556 nM
- GI50 [21]: 0.187 nM
- TGI [21]: 0.68 nM
- TGI [22]: 1.4 nM and 0.447 nM
- GI50 [23]: 0.57 nM
- TGI [23]: 1.14 nM
- GI50 [24]: 0.0944 nM and 0.106 nM
- TGI [59]: 4.95 nM and 10.2 nM
- GI50 [25]: 0.731 nM and 0.103 nM
- GI50 [27]: 0.175 nM
- TGI [27]: 1.89 nM and 0.224 nM
- TGI [29]: 0.537 nM and 0.944 nM
- GI50 [30]: 0.894 nM and 0.134 nM
- TGI [30]: 41.9 nM and 4.86 nM
- TGI [31]: 14.2 nM and 55.7 nM and 7.25 nM
- TGI [60]: 0.547 nM and 1.61 nM
- GI50 [61]: 0.234 nM
- TGI [61]: 0.414 nM and 2.22 nM
- TGI [36]: 3.12 nM and 0.772 nM
- GI50 [62]: 1.58 nM
- TGI [62]: 4.05 nM and 1.87 nM
- GI50 [37]: < 0.01 nM
- TGI [37]: 0.0797 nM and 0.406 nM
- TGI [63]: 3.34 nM
- GI50 [38]: 0.187 nM
- GI50 [39]: 0.27 nM
- TGI [39]: 11.6 nM and 50.1 nM
- GI50 [64]: 0.285 nM
- TGI [64]: 0.256 nM and 1.29 nM
- TGI [40]: 123 nM
- GI50 [41]: 0.101 nM
- TGI [41]: 0.196 nM and 0.148 nM
- GI50 [45]: 0.145 nM
- TGI [46]: 0.244 nM and 1.11 nM
- GI50 [49]: 0.463 nM
- GI50 [50]: 2.5 nM
- TGI [50]: 42.7 nM and 131 nM and 33.7 nM
- TGI [51]: 0.0808 nM and 0.153 nM
- GI50 [52]: < 0.01 nM
- GI50 [53]: 0.17 nM
- TGI [54]: 0.406 nM and 2.52 nM

Source: PubChem BioAssay (NCI)
